Laboratory results as given in patent US7691392B2 (Kosan Biosciences Incorporated, priority 2005, dated 2010).
Several values for one entry are separate records, joined by “and”; a condition that tells them apart may be missing. Identical values can stand only once. Entries after “also recorded” stand apart in the source; their conditions may differ. Like-named read-outs stand apart in the source and are kept apart here.

Assays:
[1] = test system: leukemia cells; conditions: exposure to 17-AAG; cited from earlier work
[2] = test system: colon adenocarcinoma cells; conditions: exposure to 17-AAG; cited from earlier work
[3] = test system: NSCLC cells; conditions: exposure to 17-AAG; cited from earlier work
[4] = test system: metastatic melanoma; conditions: cited from earlier work
[5] = Dose limiting toxicity and drug-related toxicities in the MM trial
Description: Non-Hematologic toxicities comprise: (1) any≧Grade 3 non-hematologic toxicity (except Grade 3 injection site reaction, alopecia, anorexia, fatigue), (2) nausea, diarrhea and/or vomiting of Grade≧3 despite the use of maximal medical intervention and/or prophylaxis, and/or (3) treatment delay of more than 4 weeks due to prolonged recovery from a drug-related toxicity.
The doses and schedule of study drug were as follows. […] Subsequent patient cohorts were enrolled per the escalation scheme outlined in the table below, as supported by observed toxicities. […] If one of three evaluable patients experienced a DLT, then the cohort was increased to six evaluable patients. If two or more of six evaluable patients in a cohort experienced a DLT, then the MTD was deemed to have been exceeded; all further accrual was at the previous dose level. If no more than one of the six patients experienced a DLT, then the next dose level was evaluated.

[6] = Plasma pharmacokinetics of 17-AAG and 17-AG in the open-label dose escalating trial in MM patients; conditions: for Cmax: iv
Protocol: The total number of PK samples collected was approximately 110 mL of whole blood (7-8 tablespoons). If a patient experienced a potentially drug-related SAE, additional PK samples were collected. Blood was drawn from the contralateral arm to the infusion site using an indwelling catheter to avoid multiple needle sticks. […] The blood tube was inverted several times, and the tube placed in wet ice immediately pending separation of the plasma. If a catheter was used for blood collection, the fluid in the catheter was completely withdrawn prior to each sample collection and discarded. Plasma samples were kept on wet ice during collection and centrifugation. Plasma samples were split into two cryovials prior to freezing at −70° C.
The PK analysis was performed as follows. […] PK parameters were calculated on plasma concentration time data by non-compartmental analysis using Kinetica version 4.3 software (Innaphase, Champs sur Marne, France). AUC was calculated by the mixed log-linear rule: the linear rule was applied to the range where concentration was ascending and the log-linear rule was applied to the range where the concentration was descending. AUClast is the area from t=0 to tlast, the last sampling time. AUCextra is the extrapolated area from AUClast to infinity and AUCtotal=AUClast+AUCextra and is also named AUC0-∞ area under the concentration-time curve from time zero to infinity. The terminal rate constant λz was calculated on at least three points on the elimination curve with values greater than the lower limit of quantitation. […] Table 5 lists the areas, Cmax, and half-life for the metabolite 17-AG (mean±one standard deviation). […] There was no dose dependency for half-life, clearance or distributive volumes for these dose administrations.

[7] = test system: advanced solid tumors; conditions: patients with advanced solid tumors; cited from earlier work
[8] = test system: Hsp70; assay: Immunoblot of peripheral blood leukocytes for client proteins; type: in vivo, human
Description: These toxicities included hepatotoxicity and gastrointestinal toxicities. The laboratory correlates included a) surface expression of insulin-like growth factor receptor-1 (IGF-1R) and b), total expression of Akt, Hsp90 and Hsp70. […] Immunoblotting analyses were used to evaluate the total levels of Akt, Hsp90 and Hsp70. […]; and b) correlation of clinical responses to 17-AAG with the degree of modulation of the biomarkers. […] Finally, peripheral blood mononuclear cells were isolated on two occasions (the first and last infusion in Cycle 1, on Days 1 and 11) prior to and 4 hours following the infusion. Cells were examined for change in client protein expression by Western Blot. Client proteins of interest include Hsp70, RAF1, LCK and CDK4 and others as indicated.

[9] = test system: MEXF 276 L melanoma cells; conditions: exposure to 17-AAG; cited from earlier work
[10] = test system: SKBr3 breast cancer cells; conditions: exposure to 17-AAG; cited from earlier work
[11] = test system: CDK4; conditions: at 24 hours; cited from earlier work
[12] = test system: lung cancer cells with wild-type Rb; conditions: exposure to 17-AAG; cited from earlier work
[13] = patients treated at 56 mg/m^2 17-AAG; cited from earlier work
[14] = test system: cell kill; conditions: in vitro and in vivo xenograft models; cited from earlier work
[15] = weekly 17-AAG, 3 weeks out of a 4 week cycle; cited from earlier work
[16] = daily for 5 days every 3 weeks; cited from earlier work
[17] = dose levels studied; cited from earlier work
[18] = test system: Raf-1; conditions: at 24 hours; cited from earlier work

C=CCNC1=C2C[C@@H](C)C[C@H](OC)[C@H](O)[C@@H](C)/C=C(\C)[C@H](OC(N)=O)[C@@H](OC)/C=C\C=C(/C)C(=O)NC(=CC1=O)C2=O [17-AAG, 17-Allylamino-17-demethoxygeldanamycin]
effect on client proteins [1]: down-regulation of intracellular Bcr-Ab1 and c-Raf proteins and reduction of Akt kinase activity | effect on client proteins [2]: depletion of Raf-1, c-Akt, and Erk1/2 | effect on client proteins [3]: depletion of erbB 1 (EGFR) and erbB2 (p185) levels | complete or partial responses ([4]; once weekly schedule): No complete or partial responses were recorded | stable disease ([4]; patients treated at 320-450 mg/m^2): two showed radiologically documented long term stable disease | DLT ([5]; 150 mg/m^2, four patients): DLT was not observed in any of these four patients | DLT ([5]; 220 mg/m^2, seven evaluable patients): DLT was observed in one patient; the DLT was liver infiltration of plasma cells with a Grade 3 elevated ALT | DLT ([5]; 275 mg/m^2 twice weekly two of three weeks, three patients): DLT was not observed in any of these three patients; also recorded: without reaching dose limiting toxicity | drug-related toxicities other than the single Grade 3 elevated ALT ([5]; all dose levels): Grade 1-2 elevated transaminases, nausea, fatigue, diarrhea, anemia, myalgias and rash | clearance CL for 17-AAG, individual patients ([6]; 220 mg/m^2, the two patients with metabolite in trough levels on Day 11): 16.8 L/h/m^2 and 17.3 L/h/m^2 | clearance CL for 17-AAG, average for the cohort ([6]; 220 mg/m^2 cohort): 25.3±9.6 L/h/m^2 | AUCtotal ([6]; 17-AAG 150 mg/m^2, mean ± SD): 5,592 ± 757 ng/mL * h | Terminal T1/2 ([6]; 17-AAG 150 mg/m^2, mean ± SD): 2.19 ± 0.58 h | Vss ([6]; 17-AAG 150 mg/m^2, mean ± SD): 170.9 ± 41.7 L | clearance ([6]; 17-AAG 150 mg/m^2, mean ± SD): 915.3 ± 113 mL/min | AUCtotal ([6]; 17-AAG 220 mg/m^2, mean ± SD): 9,460 ± 3,788 ng/mL * h | Vss ([6]; 17-AAG 220 mg/m^2, mean ± SD): 139.1 ± 45.7 L | Vz ([6]; 17-AAG 220 mg/m^2, mean ± SD): 171.0 ± 67.1 L | AUCtotal ([6]; 17-AAG 275 mg/m^2, mean ± SD): 13,803 ± 1,540 ng/mL * h | Vz ([6]; 17-AAG 275 mg/m^2, mean ± SD): 159.6 ± 54.4 L | AUCtotal ([6]; 17-AAG 340 mg/m^2, mean ± SD): 18,997 ± 4,195 ng/mL * h | Vz ([6]; 17-AAG 340 mg/m^2, mean ± SD): 174.0 ± 71.2 L | change of AUCtotal between Day 1 and Day 11 ([6]; 17 patients, first vs fourth infusion): no increase in AUCtotal between Day 1 and Day 11 | dose proportionality of Cmax ([6]; 150-340 mg/m^2 17-AAG): increased in an approximately dose proportional manner | half-life ([6]; human, in vivo): 2.19 to 3.68 h | AUC(0-t) ([6]; human, in vivo, 150 mg/m2): 5300 ng·h/mL | Vd ([6]; human, in vivo, 150 mg/m2, Vz, 17-AAG 150 mg/m^2, mean ± SD): 170 ± 30.3 L | AUC(0-t) ([6]; human, in vivo, 220 mg/m2): 9160 ng·h/mL | half-life ([6]; human, in vivo, 220 mg/m2): 2.68 ± 0.99 h | clearance ([6]; human, in vivo, 220 mg/m2, Clearance, 17-AAG 220 mg/m^2, mean ± SD): 780 mL/min | AUC(0-t) ([6]; human, in vivo, 275 mg/m2): 13400 ng·h/mL | half-life ([6]; human, in vivo, 275 mg/m2): 2.96 ± 1.34 h | clearance ([6]; human, in vivo, 275 mg/m2, Clearance, 17-AAG 275 mg/m^2, mean ± SD): 661 mL/min | Vd ([6]; human, in vivo, 275 mg/m2, Vss, 17-AAG 275 mg/m^2, mean ± SD): 123 ± 23.4 L | AUC(0-t) ([6]; human, in vivo, 340 mg/m2): 18700 ng·h/mL | half-life ([6]; human, in vivo, 340 mg/m2): 3.3 ± 0.83 h | clearance ([6]; human, in vivo, 340 mg/m2, Clearance, 17-AAG 340 mg/m^2, mean ± SD): 595 mL/min | Vd ([6]; human, in vivo, 340 mg/m2, Vss, 17-AAG 340 mg/m^2, mean ± SD): 101 ± 27.7 L | clearance ([6]; human, in vivo, CL, present study, overall): 792 mL/min | clearance ([6]; human, in vivo, Total systemic clearance, range of cohort means, across dose administrations): 636 to 915 mL/min | Vd ([6]; human, in vivo, distributive volume (Vss), range of cohort means, across dose administrations): 123 to 171 L | Vd ([6]; human, in vivo, distributive volume (Vz), range of cohort means, across dose administrations): 160 to 204 L | Cmax ([6]; human, in vivo, 150 mg/m2): 2400 ng/mL | Cmax ([6]; human, in vivo, 220 mg/m2): 4670 ng/mL | Cmax ([6]; human, in vivo, 275 mg/m2): 6820 ng/mL | Cmax ([6]; human, in vivo, 340 mg/m2): 9360 ng/mL | Vss ([6]; present study, overall): 144.45 ± 43.51 L | objective tumor responses [7]: No objective tumor responses have been observed | Hsp70 in peripheral blood leukocytes ([8]; 220 mg/m^2 cohort, following treatment): reactive induction of Hsp70 | Hsp70 in PBL, immunoblot ([8]; two patients (275 and 340 mg/m^2), prior to and 4 h after infusion, Day 1 and Day 11): increase of Hsp70 | effect on client proteins [9]: depletion of Hsp90 and down-regulation of Raf-1 and erbB2 | effect on client proteins [10]: depletion of erbB2 and destabilization of Raf-1 and mutant p53 | patients with depletion of CDK4 in tumor biopsies [11]: 8 out of 9 | effect on client proteins [12]: degradation of cdk4, cdk6, and cyclin E | Vz [13]: 93 L/m^2 | clearance [13]: 19.9 L/h/m^2 | concentrations needed to achieve cell kill [14]: 10 to 500 nM | MTD [15]: 308 mg/m^2 | maximum tolerated dose (MTD) and recommended Phase 2 dose [16]: 40 mg/m^2 | relation of dose and area under the curve (AUC) [17]: linear correlation | patients with Raf-1 depletion in tumor biopsies [18]: 4 out of 6
